Assay results: article PMC7834886 (Life Sciences, 2020)

Key:
[1] = test system: ACE2^hi cells (ACE2 high-expressing HEK293T cells); test: Cytotoxicity assay; type: cell-based; conditions: for effect on activity (survival) of ACE2^hi cells: at concentrations below 100 μM; for cytotoxicity to cells: at 20 μM
[2] = preclinical and clinical studies; cited from earlier work
ACE2 = ACE2 (Homo sapiens, UniProt Q9BYF1); type: binding; conditions: mobile phase 10 mM Na2HPO4 / phosphate-buffer saline pH 7.4; flow rate 0.2 mL/min; 37 °C; UV 254 nm
ACE2, sequence (Q9BYF1 18-805): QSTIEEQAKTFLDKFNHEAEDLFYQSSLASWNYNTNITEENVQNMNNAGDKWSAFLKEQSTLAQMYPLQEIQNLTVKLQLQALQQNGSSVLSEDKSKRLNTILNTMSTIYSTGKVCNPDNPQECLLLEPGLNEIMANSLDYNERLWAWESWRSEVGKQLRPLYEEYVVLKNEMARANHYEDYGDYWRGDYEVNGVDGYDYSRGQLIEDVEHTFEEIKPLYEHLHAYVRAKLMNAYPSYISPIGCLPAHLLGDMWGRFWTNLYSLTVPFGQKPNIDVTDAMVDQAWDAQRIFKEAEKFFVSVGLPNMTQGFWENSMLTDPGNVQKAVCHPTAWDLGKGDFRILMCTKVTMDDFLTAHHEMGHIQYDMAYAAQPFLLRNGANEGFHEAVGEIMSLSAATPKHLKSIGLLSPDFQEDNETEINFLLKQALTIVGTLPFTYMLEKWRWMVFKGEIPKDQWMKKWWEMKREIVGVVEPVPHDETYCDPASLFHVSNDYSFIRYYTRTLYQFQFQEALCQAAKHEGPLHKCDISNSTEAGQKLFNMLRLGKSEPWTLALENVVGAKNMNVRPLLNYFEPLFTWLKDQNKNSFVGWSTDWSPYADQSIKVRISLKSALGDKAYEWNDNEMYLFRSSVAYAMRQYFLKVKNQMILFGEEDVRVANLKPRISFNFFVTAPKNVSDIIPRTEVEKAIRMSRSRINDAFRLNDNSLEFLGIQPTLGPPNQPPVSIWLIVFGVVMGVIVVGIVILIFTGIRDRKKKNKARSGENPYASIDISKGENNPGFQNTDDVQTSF

## O=C1CCc2ccc(OCCCCN3CCN(c4cccc(Cl)c4Cl)CC3)cc2N1 [Ari, aripiprazole]
[1]; CCK-8, 24 h
  effect on activity (survival) of ACE2^hi cells: no significant effect
[1]
  cytotoxicity to cells: no cytotoxicity

## CN(C)CCCN1c2ccccc2Sc2ccc(Cl)cc21 [Chl, Chlorpromazine]
[1]
  cytotoxicity to cells: no cytotoxicity
[2]
  concentration in the lungs relative to plasma: 20–200 times higher than in plasma

## OCCOCCN1CCN(C2=Nc3ccccc3Sc3ccccc32)CC1 [Que, quetiapine]
[1]; CCK-8, 24 h, at concentrations below 50 μM
  difference in cell viability versus control group: no significant difference
[1]
  cytotoxicity to cells: no cytotoxicity

## CSc1ccc2c(c1)N(CCC1CCCCN1C)c1ccccc1S2 (stereo not drawn) [Thi, thioridazine]
[1]
  cytotoxicity to cells: no cytotoxicity
ACE2
  retention time (tR) on ACE2-CMC column: 51.604 min

## CCN(CC)CCNC(=O)c1cc(S(C)(=O)=O)ccc1OC [Tia, tiapride]
[1]; CCK-8, 24 h
  effect on activity (survival) of ACE2^hi cells: no significant effect
[1]
  cytotoxicity to cells: no cytotoxicity
ACE2
  retention time (tR) on ACE2-CMC column: 7.789 min

## CN1CCN(CCCN2c3ccccc3Sc3ccc(C(F)(F)F)cc32)CC1 [Tri, Trifluoperazine]
[1]
  cytotoxicity to cells: no cytotoxicity
